Experimental data taken from US8067424B2, “Selective inhibitors for cyclin-dependent kinases” (Emory University, priority 2007, dated 2011).
Like-named read-outs stand apart in the source and are kept apart here.

Columns and labels:
Type in all cases: biochemical
[1] = biological target: PAK5 (Homo sapiens, UniProt Q9P286); experiment: Kinase screen: PAK5 (PAK7) assay
Procedure: (§1) Generally, the same procedure was used for all assays. Since the total assay volume was 25.5 microliters, 0.5 microliters of inhibitors at 51× assay concentration were added to the plates before any other addition.
(§2) The basic procedure was to add 0.5 microliters inhibitor/control in DMSO to plate. Fifteen microliters of enzyme/substrate/buffer mix were added and incubated for 5 min. Ten microliters MgATP at the relevant concentration were added and incubated for 30 min. The assay was stopped by adding 5 microliters of 3% orthophosphoric acid. The assay was transferred to a p81 filter plate and read in a scintillation counter of 30 sec/well. Note that this assay procedure was not followed for MKK1, which instead involved a two-step assay, and PKC alpha, which required the addition of lipid vesicles.
PAK5 (PAK7) assay: PAK5 (PAK7)(5-20 mU diluted in 50 mM Tris pH 7.5, 0.1 mM EGTA, 0.1% b-mercaptoethanol, 1 mg/ml BSA) was assayed against a substrate peptide ([…]) (SEQ ID NO: 30) in a final volume of 25.5 μl containing 50 mM Tris pH 7.5, 0.05% b-mercaptoethanol, 300 μM substrate peptide, 10 mM magnesium acetate and 0.02 mM [33P-g-ATP] (50-1000 cpm/pmole) and incubated for 30 min at room temperature. Assays were stopped by addition of 5 μl of 0.5 M (3%) orthophosphoric acid and then harvested onto P81 Unifilter plates with a wash buffer of 50 mM orthophosphoric acid.

[2] = biological target: ROCK 2 (Homo sapiens, UniProt O75116); experiment: Kinase screen: ROCK-II (ROKa) assay
ROCK 2, sequence (O75116 whole entry, species assumed): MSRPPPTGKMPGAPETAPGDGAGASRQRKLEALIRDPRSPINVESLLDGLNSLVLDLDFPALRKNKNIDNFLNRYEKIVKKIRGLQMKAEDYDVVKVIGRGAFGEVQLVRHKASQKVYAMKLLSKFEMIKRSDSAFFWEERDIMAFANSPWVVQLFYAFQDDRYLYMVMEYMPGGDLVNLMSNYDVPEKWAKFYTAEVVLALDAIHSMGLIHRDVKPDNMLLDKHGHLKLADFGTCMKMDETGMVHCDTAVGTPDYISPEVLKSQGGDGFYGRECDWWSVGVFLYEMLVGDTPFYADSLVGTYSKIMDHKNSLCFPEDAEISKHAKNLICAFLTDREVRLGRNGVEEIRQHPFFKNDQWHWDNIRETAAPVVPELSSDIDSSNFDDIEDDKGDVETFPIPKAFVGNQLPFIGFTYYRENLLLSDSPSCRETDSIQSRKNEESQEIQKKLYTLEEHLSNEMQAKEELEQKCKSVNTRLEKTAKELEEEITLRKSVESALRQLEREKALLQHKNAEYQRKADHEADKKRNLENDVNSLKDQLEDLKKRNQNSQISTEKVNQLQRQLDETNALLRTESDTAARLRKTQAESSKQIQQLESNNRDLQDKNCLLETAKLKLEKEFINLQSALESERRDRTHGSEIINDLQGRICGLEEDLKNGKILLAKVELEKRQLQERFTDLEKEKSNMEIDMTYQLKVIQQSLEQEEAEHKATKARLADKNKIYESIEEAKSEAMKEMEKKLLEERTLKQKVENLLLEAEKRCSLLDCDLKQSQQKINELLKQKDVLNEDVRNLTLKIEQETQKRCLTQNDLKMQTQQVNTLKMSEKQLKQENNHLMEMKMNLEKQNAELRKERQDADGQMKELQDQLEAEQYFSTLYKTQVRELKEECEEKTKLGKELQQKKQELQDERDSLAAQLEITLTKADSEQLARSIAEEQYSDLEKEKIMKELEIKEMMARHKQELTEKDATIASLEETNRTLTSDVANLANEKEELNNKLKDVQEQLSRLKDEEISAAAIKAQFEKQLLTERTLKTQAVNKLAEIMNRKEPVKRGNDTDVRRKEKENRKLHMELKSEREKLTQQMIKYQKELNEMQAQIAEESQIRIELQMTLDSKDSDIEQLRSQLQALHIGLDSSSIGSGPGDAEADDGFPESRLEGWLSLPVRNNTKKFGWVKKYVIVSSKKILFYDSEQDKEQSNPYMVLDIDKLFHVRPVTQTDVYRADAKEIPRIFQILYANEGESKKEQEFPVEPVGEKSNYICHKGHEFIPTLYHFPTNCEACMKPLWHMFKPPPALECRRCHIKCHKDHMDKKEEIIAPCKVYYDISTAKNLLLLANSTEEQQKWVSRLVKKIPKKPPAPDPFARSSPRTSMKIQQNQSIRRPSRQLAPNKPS
Procedure: as §1, §2
ROCK-II (ROKa) assay: ROCK-II (ROKa) (5-20 mU diluted in 50 mM Tris pH 7.5, 0.1 mM EGTA, 0.1% b-mercaptoethanol, 1 mg/ml BSA) was assayed against Long S6 substrate peptide ([…]) (SEQ ID NO: 10) in a final volume of 25.5 μl containing 50 mM Tris pH 7.5, 0.1 mM EGTA, 30 μM Long S6 substrate peptide, 10 mM magnesium acetate and 0.02 mM [33P-g-ATP] (50-1000 cpm/pmole) and incubated for 30 min at room temperature. Assays were stopped by addition of 5 μl of 0.5 M (3%) orthophosphoric acid and then harvested onto P81 Unifilter plates with a wash buffer of 50 mM orthophosphoric acid.

[3] = biological target: T1, ERK8 (Homo sapiens, UniProt Q8TD08); experiment: Kinase screen: ERK8 assay
T1 sequence (Q8TD08 1-544): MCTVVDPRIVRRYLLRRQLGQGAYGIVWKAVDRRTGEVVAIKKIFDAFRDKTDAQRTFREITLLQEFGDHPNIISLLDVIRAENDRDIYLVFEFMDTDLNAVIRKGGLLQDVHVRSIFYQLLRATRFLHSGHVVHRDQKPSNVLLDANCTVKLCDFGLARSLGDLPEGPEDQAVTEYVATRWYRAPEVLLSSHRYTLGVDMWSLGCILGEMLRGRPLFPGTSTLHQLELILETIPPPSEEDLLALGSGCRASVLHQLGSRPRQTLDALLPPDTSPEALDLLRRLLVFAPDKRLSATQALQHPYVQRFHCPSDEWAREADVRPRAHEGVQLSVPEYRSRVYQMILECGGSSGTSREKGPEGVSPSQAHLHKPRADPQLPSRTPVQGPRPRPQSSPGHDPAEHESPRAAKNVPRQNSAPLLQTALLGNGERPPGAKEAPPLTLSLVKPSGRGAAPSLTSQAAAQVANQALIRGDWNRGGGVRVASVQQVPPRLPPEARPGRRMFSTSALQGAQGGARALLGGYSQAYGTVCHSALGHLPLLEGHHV
Procedure: as §1, §2
ERK8 assay: 5-20 mU of ERK8 (diluted in 50 mM Tris (pH 7.5), 0.1 mM EGTA, 1 mg/ml BSA, 0.1%, b-Mercaptoethanol) was assayed against MBP in a final volume of 25.5 μl containing 50 mM Tris (pH 7.5), 0.1 mM EGTA, 0.1%, b-Mercaptoethanol, 0.33 mg/ml MBP, 10 mM magnesium acetate and 0.005 mM [33P-g-ATP] (500-1000 cpm/pmole) and incubated for 30 mins at room temperature. Assays were stopped by addition of 5 μl of 0.5M (3%) orthophosphoric acid. Assays were harvested onto P81 Unifilter plates using a wash buffer of 50 mM orthophosphoric acid.

[4] = biological target: T2, CDK9/cyclin T complex (Homo sapiens, UniProt P50750); experiment: CDK9/cyclin T kinase assay (as for CDK7); conditions: for remaining activity at 0.1 µM: 100 nM, mean of three (standard deviation), read-out: CDK9 % remaining kinase activity after incubation with 100 nM of compound; for IC50: Table 7, mean of three experiments, read-out: CDK9 kinase inhibition in vitro (IC50)
T2 construct: purchased Proqinase GmbH, Germany
T2 sequence (P50750 whole entry): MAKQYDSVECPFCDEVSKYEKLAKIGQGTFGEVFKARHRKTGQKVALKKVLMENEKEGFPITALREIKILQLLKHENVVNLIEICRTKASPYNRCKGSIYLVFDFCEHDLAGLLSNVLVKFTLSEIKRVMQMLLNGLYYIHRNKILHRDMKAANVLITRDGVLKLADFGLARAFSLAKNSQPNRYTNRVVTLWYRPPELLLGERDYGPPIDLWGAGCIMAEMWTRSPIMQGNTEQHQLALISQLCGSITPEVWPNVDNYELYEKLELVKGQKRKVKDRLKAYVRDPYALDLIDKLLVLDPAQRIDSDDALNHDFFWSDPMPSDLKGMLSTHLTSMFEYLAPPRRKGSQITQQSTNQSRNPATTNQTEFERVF
T2 sequence (O60563 whole entry partner): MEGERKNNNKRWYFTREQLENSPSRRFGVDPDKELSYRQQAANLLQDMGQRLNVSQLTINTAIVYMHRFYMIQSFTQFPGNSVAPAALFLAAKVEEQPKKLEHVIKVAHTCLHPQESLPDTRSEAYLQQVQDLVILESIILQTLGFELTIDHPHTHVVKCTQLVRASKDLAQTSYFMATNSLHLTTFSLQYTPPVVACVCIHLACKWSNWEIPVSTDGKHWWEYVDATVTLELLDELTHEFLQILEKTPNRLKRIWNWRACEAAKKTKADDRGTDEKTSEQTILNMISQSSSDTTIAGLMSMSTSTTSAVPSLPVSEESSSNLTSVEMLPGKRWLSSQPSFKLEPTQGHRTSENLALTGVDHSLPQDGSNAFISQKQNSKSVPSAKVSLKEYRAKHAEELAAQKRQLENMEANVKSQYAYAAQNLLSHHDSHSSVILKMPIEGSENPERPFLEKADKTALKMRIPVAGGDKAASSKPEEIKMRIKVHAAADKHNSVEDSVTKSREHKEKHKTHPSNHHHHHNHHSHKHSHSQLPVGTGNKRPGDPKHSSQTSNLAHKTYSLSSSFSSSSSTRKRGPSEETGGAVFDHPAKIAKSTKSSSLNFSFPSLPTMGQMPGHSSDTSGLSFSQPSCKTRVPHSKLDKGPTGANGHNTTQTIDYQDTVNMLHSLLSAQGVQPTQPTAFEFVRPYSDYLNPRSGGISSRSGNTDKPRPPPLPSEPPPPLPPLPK
Summary of the method: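 Run as the CDK7 protocol with 50 ng CDK2/cyclin A or 100 ng CDK9/cyclin T; compound 30 min at 30 °C, then 2 μM ATP final for 20 min at 30 °C. ATP depletion by luciferase luminescence (PKLight), triplicate, normalised to no-enzyme and enzyme controls.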

[5] = 10 micromolar compound, read-out: mean activity remaining (as a percentage of the original activity), PAK5
[6] = 10 micromolar compound, read-out: mean activity remaining (as a percentage of the original activity), ROCK 2
[7] = 10 micromolar compound, read-out: mean activity remaining (as a percentage of the original activity), ERK8

PAK5, sequence (Q9P286 whole entry): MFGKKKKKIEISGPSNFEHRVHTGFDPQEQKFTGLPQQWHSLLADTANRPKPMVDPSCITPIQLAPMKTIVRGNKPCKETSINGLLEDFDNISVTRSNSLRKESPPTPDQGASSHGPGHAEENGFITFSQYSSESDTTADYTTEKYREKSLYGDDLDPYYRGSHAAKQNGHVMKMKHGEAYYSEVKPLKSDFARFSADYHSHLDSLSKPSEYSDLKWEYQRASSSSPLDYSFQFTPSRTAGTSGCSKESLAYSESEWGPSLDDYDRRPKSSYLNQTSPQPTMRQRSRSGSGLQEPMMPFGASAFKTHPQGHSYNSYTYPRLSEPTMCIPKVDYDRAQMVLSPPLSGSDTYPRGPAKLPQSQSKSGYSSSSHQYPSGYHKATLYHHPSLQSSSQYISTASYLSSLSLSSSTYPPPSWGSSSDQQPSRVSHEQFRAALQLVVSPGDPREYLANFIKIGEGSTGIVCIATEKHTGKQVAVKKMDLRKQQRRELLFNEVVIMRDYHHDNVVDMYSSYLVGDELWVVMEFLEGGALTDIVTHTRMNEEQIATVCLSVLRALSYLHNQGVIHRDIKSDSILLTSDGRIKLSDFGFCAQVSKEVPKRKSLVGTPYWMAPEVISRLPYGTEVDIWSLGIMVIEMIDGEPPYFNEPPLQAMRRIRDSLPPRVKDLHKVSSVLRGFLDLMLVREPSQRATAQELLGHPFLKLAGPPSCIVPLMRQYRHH

SMILES | mean activity remaining (as a percentage of the original activity), PAK5 ([1]; 10 micromolar compound) [%] | mean activity remaining (as a percentage of the original activity), ROCK 2 ([2]; 10 micromolar compound) [%] | mean activity remaining (as a percentage of the original activity), ERK8 ([3]; 10 micromolar compound) [%] | remaining activity at 10 µM ([1]; PAK5, 10 μM, read-out: Mean Remaining Enzyme Activity (%)) [%] | remaining activity at 10 µM ([2]; ROCK 2, 10 μM, read-out: Mean Remaining Enzyme Activity (%)) [%] | remaining activity at 10 µM ([3]; ERK8, 10 μM, read-out: Mean Remaining Enzyme Activity (%)) [%] | remaining activity at 10 µM [1, 5] [%] | remaining activity at 10 µM [2, 6] [%] | remaining activity at 0.1 µM [4] [%] | IC50 [4] [nM] | remaining activity at 10 µM [3, 7] [%]
CC(C)c1cnn2c(NCc3ccccc3F)cc(NCCCCCN)nc12 [ICEC-0232] | 81 | 86 | 23 | – | – | – | – | – | – | – | –
CC(C)c1cnn2c(NCc3ccccc3)cc(NCCCCCCCN)nc12 [BS-181] | – | – | – | 80 | 76 | 32 | – | – | – | – | –
CC[C@H](CO)Nc1cc(NCc2ccccc2)n2ncc(C(C)C)c2n1 [ICEC0067] | – | – | – | – | – | – | 89 | 85 | 85 | 100 | 23
C=C[C@H](CO)Nc1cc(NCc2ccccc2)n2ncc(C(C)C)c2n1 [ICEC0065] | – | – | – | – | – | – | 81 | 95 | 100 | > 1000 | 28
CC(C)c1cnn2c(NCc3ccccc3)cc(N[C@@H](CO)[C@H](O)CO)nc12 [ICEC0318, (3S)-3-(7-(Benzylamino)-3-isopropylpyrazolo[1,5-a]pyrimidin-5-ylamino)butane-1,2,4-triol] | – | – | – | – | – | – | 65 | 102 | 56 | – | 26
